How the values were obtained:
[1] = tested on: mouse embryonic fibroblast (MEF) cells; assay: Determining complete fusion inhibition: saturating inhibitor concentration, Western blot; format: cell-based
Excerpt: FIG. 2 is a Western blot analysis and corresponding graphs illustrating the results of the study to determine the saturating inhibitor concentration of bafilomycin A1 required to fully block autophagosomal/lysosomal fusion.
This saturating concentration should be determined prior to performing the method. […] Although this can be performed through Western blot analysis, a more precise technique is to determine the change over time of the autophagosome pool size after inhibition of fusion using the method of the present invention (FIG. 2). Thus, the change in pool size before and shortly after inhibition of fusion is determined and the rate of change (typically expressed over 1 hour) is calculated.
Bafilomycin A1 was selected as the inhibitor in this example because it is the most commonly used drug in the field.

LC3, p62 and pmTOR = assay: Western blot analysis probing for LC3, p62 and pmTOR (validation); format: cell-based; settings: treatment with bafilomycin
Description: FIG. 8 is a Western blot analysis probing for LC3, p62 and pmTOR. […] This method, however, cannot measure dynamic changes and vesicular pool size required to measure autophagosome flux. […] Western blot analysis and TEM was performed in the presence and absence of bafilomycin A1. […] Therefore, autophagosome flux cannot be accurately assessed. It allows the detection of the respective protein, LC3 II, from a whole cell population, without linking the protein band signal to single cell pool sizes of entities. Moreover, the nature of Western blot analysis omits any measurements of dynamic changes (FIG. 8).

MEF cells = assay: Autophagosome flux assay: live-cell z-stack fluorescence imaging of GFP-LC3 / LysoTracker Red cells, with fusion blocked by 400 nM bafilomycin A1; format: cell-based, mouse
Description: For the autophagosomal pool size analysis, the autophagosomes and the lysosomes were visualized and labelled specifically. The autophagolysosomal entities were identified by co-localization analysis. Stably transfected green fluorescent protein-LC3 (GFP-LC3) cells were treated with the lysosome-labelling marker, LysoTracker® Red (Life Technologies, #L-7528) in order to visualize the autophagosomes, the lysosomes and the autophagolysosomes. MEF cells were seeded onto a sterile cover-slip patterned with large fibronectin discs (CYTOO, #10-003-10) in a CYTOO chamber single well plate. Cells were seeded at a density of 2×10^4 cells and incubated for 30 minutes. Thereafter, the chamber was rinsed several times using DMEM until all adherent cells in the non-patterned regions were washed off. The cells were maintained for 2 hours prior to the experiment in DMEM, containing 75 nM LysoTracker Red, in a humidified atmosphere in the presence of 5% CO2 at […]. The chamber plate was then enclosed in an Olympus IX-81 stage of an inverted fluorescence microscope in the presence of 5% CO2 for the duration of the experiment. Serum starvation was avoided, since it would upregulate autophagosome flux and mask the cell-inherent basal autophagosome flux.
Z-stack image acquisition was performed in order to acquire the complete autophagosomal pool size. An Olympus IX-81 coupled to an MT-20 and xenon burner 150 W and an F-view camera were employed. Temperature and 5% CO2 were controlled. For live cell acquisition, single cell acquisition was performed using automated stage coordinate settings. CellR-based software (Olympus, Soft Imaging) was employed. Images were processed using Cell R imaging software and exported to the modified (for high throughput) automated counting software (ImageJ with WatershedCounting3D plug in (Gniadek et al., 2007)), to count the green and red puncta using voxel dimension 0.08 for both x and y as the search parameters. Puncta count and morphometric analysis were performed using the Watershed Counting3D plugin of ImageJ. Images were converted to RGB colour format and processed by WatershedCounting3D. Puncta count and surface area were determined for each colour puncta from the output file generated. Equations 1, 2 and 3 described above were used to determine the radius, volume and total surface area of spheres.
In order to assess the basal autophagosome flux in steady state, cells were treated with 400 nM bafilomycin A1 (FIG. 4). The autophagosomal pool size was monitored for two hours post-inhibition and images were acquired at 30 minute intervals. The basal flux, Jbasal, was determined by allowing the autophagic system to reach a steady state under basal conditions (basal flux is the initial slope of the progress curve at the point of inhibition of fusion). Multiple cells (n=10) were assessed simultaneously using a stage control. The transition time, τ, was calculated from the ratio τ=nA/J of the autophagosome pool size and autophagosome flux, and indicated the turnover time of the autophagosome pool at steady state.
The autophagosome flux J, the autophagosomal pool size nA, and the autophagosomal transition time τ were determined (FIG. 6 and Table 1).

[2] = 25 nM rapamycin versus basal, increase

Row | Structure (SMILES) | Inhibition of autophagosomal-lysosomal fusion ([1]; 400 nM for 2 hours) | Cell toxicity ([1]; concentration of 800 nM) | LC3II and p62 bands (LC3, p62 and pmTOR) | Transition time, % change (% Δ) (MEF cells; 25 nM rapamycin versus basal, decrease) | Autophagosome Pool size nA, % change (% Δ) (MEF cells; [2]) | Autophagosome flux J, % change (% Δ) (MEF cells; [2]) | Autophagolysosomal transition time, τAL (MEF cells; induced with rapamycin) | Autophagosomal membrane flux, Jmem (MEF cells; induced with rapamycin) | Cytoplasmic volume consumption rate, Jvol (MEF cells; induced with rapamycin) | Autophagosome flux, J (MEF cells; induced with rapamycin (25 nM)) | Average volume of an autophagosome (MEF cells; induced with rapamycin (25 nM)) | Number of autophagolysosomes, nAL (MEF cells; induced with rapamycin (25 nM)) | Number of autophagosomes, nA (MEF cells; induced with rapamycin (25 nM)) | Autophagosomal transition time, τA (MEF cells; induced with rapamycin, τ=nA/J) | Autophagosome Pool size nA (MEF cells; modulator rapamycin (Table 2)) | Autophagosome flux, J (MEF cells; modulator rapamycin (Table 2)) | Transition time (MEF cells; modulator rapamycin (Table 2)) | Autophagosome Pool size nA, net change (Δ) (MEF cells; rapamycin versus basal) | Autophagosome flux J, net change (Δ) (MEF cells; rapamycin versus basal) | Transition time, net change (Δ) (MEF cells; rapamycin versus basal, decrease)
1 | CO/C1=C\C(C)=C\[C@@H](C)[C@@H](O)[C@@H](C)C/C(C)=C/C=C/[C@H](OC)[C@@H]([C@@H](C)[C@@H](O)[C@H](C)[C@@]2(O)C[C@@H](O)[C@H](C)[C@@H](C(C)C)O2)OC1=O [Bafilomycin A1] | complete inhibition | cell toxicity was observed | increases | – | – | – | – | – | – | – | – | – | – | – | – | – | – | – | – | –
2 | CO[C@H]1C[C@@H]2CC[C@@H](C)[C@@](O)(O2)C(=O)C(=O)N2CCCC[C@H]2C(=O)O[C@H]([C@H](C)C[C@@H]2CC[C@@H](O)[C@H](OC)C2)CC(=O)[C@H](C)/C=C(\C)[C@@H](O)[C@@H](OC)C(=O)[C@H](C)C[C@H](C)/C=C/C=C/C=C/1C [rapamycin] | – | – | – | 69.8% | 22.4% | 315% | 2.4 h | 8268 μm^2/hr/cell | 495 fL/hr/cell | 105.4 A/hr/cell | 4.7 fL | 251.2 AL/cell | 16.7 A/cell | 0.16 h | 16.4 No. of autophagosomes | 105.4 No. of autophagosomes/cell*hr^1 | 0.16 h | 3 No. of autophagosomes | 80 No. of autophagosomes/cell*hr^1 | 0.37 h
